Data as given in patent US8273553B2, “Production of growth hormone in serum-free cell culture medium for mammalian cells” (Ares Trading S.A., priority 2004, dated 2012).
Where two headings read alike, the source gives them in different places.

Key:
[1] = system: hGH expressing C127 cells; assay: rhGH productivity of hGH expressing C127 cells in roller bottles, DMEM supplemented with trace elements (Example 1); assay type: cell-based, murine; conditions: for productivity increase, amino acid added together with the metals: Zn 0.5 μM, Cu 0.02 μM, Ferric Citrate 4.8 μM plus Gln 4.8 mM or Cys 0.29 mM; for % INCREASE OF PRODUCTIVITY: single ion in DMEM at growth medium concentration: Zn 1.50300, Cu 0.02560, Se 0.11400, Co 0.00840 μM; for average productivity increase compared to control: 10 μM continuously added to DMEM, production phase 14 days; for productivity increase at the assayed concentration (in words): 10 μM in DMEM
Method: The addition of the different supplements assayed (metal solutions etc.) in different experiments was carried out directly on fresh culture medium.
Genetically modified C127 murine cells (ATCC CRL 1616) were used for the expression of the recombinant human growth hormone (rhGH). The vector is based on BPV69T comprising the pBR322 multiple cloning site and comprising 1.6 kb of the rhGH minigene under the control of mouse metallothionein-1 (MT-1) promoter. Cultures derived from one Working Cell Bank obtained from different rhGH production batches were used in the experiments.
Cell cultures were kept incubated at 36° C.±0.5° C. and 0.4 rpm in 2125 cm^2 roller bottles containing 375 mL±15 mL of culture medium or in 1700 cm cm^2 roller bottles containing 300 mL of culture medium.
Culture medium used for the rhGH production phase was DMEM with 4.5 g/L glucose buffered with sodium bicarbonate (3.7 g/L).
Measurement of rhGH in the culture medium was carried out daily by reverse-phase HPLC titration:
Chromatography conditions are: • Elution by gradient: starting with a mixture phase A/phase B 60/40 ending at phase A/phase B 20/80. Gradient complete in 5 minutes (slightly variable depending on instrumentation in use) • Injection volume 50 μliters • Detection: UV absorbance at 215 nm. • P Calibration curve: r-hGH standard at 10, 50, 100, 120 and 150 μg/ml
The r-hGH concentration of a sample is determined by comparison with standard r-hGH concentrations.
Productivity is expressed as mg of rhGH per roller bottle. Raw data are rhGH concentration in the harvest (as measured by HPLC) and total number of roller bottles harvested. Typically a roller bottle during harvest phase contains around 10^9 cells.

[2] = system: r-hGH producing cells of working cell bank 15 (WCB15); assay: r-hGH productivity in six-well plates (P6 system), DMEM with additions (Example 2); assay type: cell-based; conditions: for average productivity, % of control: duplicate; for response μg/well/hrvst / response as % “−1−1−1”: Cr 2.5 nM, Ni 1 nM in DMEM, average of 14 harvests; for response as % “−1−1−1”: relative to no addition; for % increase of hGH productivity: 6-well system
Method: The experiments were carried out using the working cell bank 15 (WCB15), which is now in current use in normal production.
Scale-down screening experiments were carried out in six-well plates COSTAR P6 of treated CELLBIND polystyrene (CORNING catalogue No. 3335) supplied with 5 mL of culture medium per well. In this case P6 plates were seeded with cells taken from the subculture 3 (standard manufacturing process) to an approximate density of 5×10^5 viable cells/well and then incubated at 37° C., within controlled atmosphere of CO2 at 5%, with standard growth medium or under 13% CO2 when changing to DMEM production medium modified as per the specific experimental plan.
(§1) Measurement of r-hGH in the culture medium was carried out daily by the currently approved reverse-phase HPLC titration.
In other experiments, metal trace elements were added to the DMEM in three concentrations and tested for effects on r-hGH productivity in 6-well plates. Each concentration was tested in duplicate and the average value was calculated. In all cases the concerned salt was prepared as 1000× stock solution from which the corresponding aliquots were taken and added to the medium.

[3] = system: r-hGH producing cells of working cell bank 15 (WCB15); assay type: cell-based; conditions: for Product. up to H14 / Product. up to H25: relative to control
Method: According to the approved work instructions, cell cultures were kept incubated at 36° C.±0.5° C. and 0.4 rpm in 1700 cm^2 roller bottles containing 400 mL±20 mL of culture medium.
as §1

[4] = pH in a range of 6.5 to 8.5; cited from earlier work
[5] = system: cell monolayer of rhGH-producing cultures; assay: peeling-off: detachment of the cell monolayer from the roller bottles; conditions: roller bottles with CDX, second part of harvest period

## NC(=O)CC[C@H](N)C(=O)O [glutamine, L-glutamine]
[1]
  productivity increase, amino acid added together with the metals: 81.1%

## O.O.O.O.O.O=[Se]([O-])[O-].[Na+].[Na+] [Se, Sodium Selenite (Na2SeO3.5H2O)]
[1]
  % INCREASE OF PRODUCTIVITY: −3.10%
[2]; 1 nM in DMEM
  average productivity, % of control: 101.5%
[2]; 10 nM in DMEM
  average productivity, % of control: 102.4%
[2]; 500 nM in DMEM
  average productivity, % of control: 101.4%

## O.O.O.O.O.O.[Cl-].[Cl-].[Co+2] [Co, Cobalt Chloride (CoCl2.6H2O)]
[3]; Co 1 mcrM added to DMEM
  Product. up to H14: 107%
  Product. up to H25: 102%
[3]; Co 2 mcrM added to DMEM
  Product. up to H14: 110%
  Product. up to H25: 102%
[3]; Co 5 mcrM added to DMEM
  Product. up to H14: 113%
  Product. up to H25: 101%
[3]; Co 10 mcrM added to DMEM
  Product. up to H14: 117%
  Product. up to H25: 104%
[1]
  average productivity increase compared to control: 32.4%
  % INCREASE OF PRODUCTIVITY: −3.20%
[1]; cobalt continuously added (10 μM)
  rhGH productivity increase compared to control, continued induction: 32.5%
[1]; cobalt intermittently added (20 μM CoCl2.6H2O)
  rhGH productivity increase compared to control, intermittent induction: 9%
[2]; 2^3 factorial design, Co 5 mcrM
  statistical analysis of effect on productivity (in words): significant effect on productivity
[2]; Co 5 mcrM
  response μg/well/hrvst: 272.1 μg/well/hrvst
  response as % “−1−1−1”: 107.1%

## hGH: single polypeptide chain of 191 amino acids having two disulfide bonds
[4]
  solubility in aqueous buffers: > 10 µg/mL

## N[C@@H](CSSC[C@H](N)C(=O)O)C(=O)O [cystine, L-cystine]
[1]
  productivity increase, amino acid added together with the metals: 69.9%

## [Sn] [Sn]
[2]; 1 nM in DMEM
  average productivity, % of control: 101.8%
[2]; 10 nM in DMEM
  average productivity, % of control: 97.7%
[2]; 100 nM in DMEM
  average productivity, % of control: 96.5%
[2]; highest tested concentrations
  effect of higher concentrations on productivity (in words): higher concentrations seem to reduce productivity

## O.O.O.O.O.O.O.O=S(=O)([O-])[O-].[Zn+2] [Zn, Zinc sulfate (ZnSO4.7H2O)]
[1]; Ferric Citrate 4.8 μM and Copper 0.025 μM constant
  concentration at which maximum productivity level (plateau) is observed: above 200 nM
[1]; Zinc 0.5 μM in DMEM
  increase in productivity: 16.8%±1.6%
[1]; Zinc 1.5 μM in DMEM
  increase in productivity: 10.3%±5.0%
[1]; Zinc above 200 nM, Ferric Citrate 4.8 μM, Copper 0.025 μM
  productivity at plateau over the average control value: about 60%
[1]
  % INCREASE OF PRODUCTIVITY: 12.10%

## O.O.[Ba+2].[Cl-].[Cl-] [Ba, Barium Chloride (BaCl2.2H2O)]
[1]
  average productivity increase compared to control: 1.1%
  productivity increase at the assayed concentration (in words): Neither Barium nor Chromium showed productivity increase
[2]; 1 nM in DMEM
  average productivity, % of control: 103.1%
[2]; 10 nM in DMEM
  average productivity, % of control: 101.9%
[2]; 100 nM in DMEM
  average productivity, % of control: 98.9%

## O.O.O.O.O.O.O.O.O=S(=O)([O-])[O-].O=S(=O)([O-])[O-].O=S(=O)([O-])[O-].[Cd+2].[Cd+2].[Cd+2] [Cd, Cadmium Sulphate (CdSO4.8/3H2O)]
[3]; Cd 100 nM, roller bottles, two independent experiments
  increase in r-hGH productivity over the control: 12-15%
[2]; 1 nM in DMEM
  average productivity, % of control: 100.8%
[2]; 10 nM in DMEM
  average productivity, % of control: 103.6%
[2]; 100 nM
  increase of productivity: 20%
[2]; 100 nM in DMEM
  average productivity, % of control: 120.6%

## O.O.O.O.O.O=S(=O)([O-])[O-].[Cu+2] [Cu, Copper Sulfate (CuSO4.5H2O)]
[1]; Copper 0.02 μM in DMEM
  increase in productivity: 32.1%±9.4%
[1]; Zinc 0.5 μM and Ferric Citrate 4.8 μM constant
  optimal supplementation concentration in DMEM: 25.6 nM
[1]
  % INCREASE OF PRODUCTIVITY: 37.50%

## Methyl-β-Cyclodextrin [CDX]
[3]; CDX 116 mg/L (0.1 mM), Cadmium 0.1 micromolar, Cobalt 1 micromolar
  productivity relative to the control: 104%
[5]
  peeling off in the roller bottles (visual observation): much less peeling off
[2]; CDX 25 mg/L, 0.02 mM
  % increase of hGH productivity: 2%
[2]; CDX 50 mg/L, 0.04 mM
  % increase of hGH productivity: 4%
[2]; CDX 80 mg/L, 0.07 mM
  % increase of hGH productivity: 5%
[2]; CDX 116 mg/L, 0.1 mM
  % increase of hGH productivity: 7%
[2]; CDX only (FIG. 19)
  increase in productivity: 7%

## O.O.O.O.O.O.O=[N+]([O-])[O-].O=[N+]([O-])[O-].[Ni+2] [Ni, Nickel Nitrate (Ni(NO3)2.6H2O)]
[2]; 1 nM in DMEM
  average productivity, % of control: 103.1%
[2]; 10 nM in DMEM
  average productivity, % of control: 102.1%
[2]; 100 nM in DMEM
  average productivity, % of control: 98.6%
[2]; Co 5 mcrM
  response μg/well/hrvst: 257.0 μg/well/hrvst
  response as % “−1−1−1”: 101.2%

## [Mn] [Mn]
[2]; 1 nM in DMEM
  average productivity, % of control: 101.3%
[2]; 10 nM in DMEM
  average productivity, % of control: 103.8%
[2]; 100 nM in DMEM
  average productivity, % of control: 101.8%

## O.O.O.O.O.O.O.O.O.O.O.O.O=S(=O)([O-])[O-].O=S(=O)([O-])[O-].[Cr+3].[K+] [Cr, Chromium Potassium Sulfate (K[Cr(SO6H4)2(H2O)2].6H2O)]
[1]
  productivity increase at the assayed concentration (in words): Neither Barium nor Chromium showed productivity increase
[2]; 1 nM in DMEM
  average productivity, % of control: 102.0%
[2]; 10 nM in DMEM
  average productivity, % of control: 102.8%
[2]; 100 nM in DMEM
  average productivity, % of control: 97.8%
[2]; Co 5 mcrM
  response μg/well/hrvst: 253.6 μg/well/hrvst
  response as % “−1−1−1”: 99.8%
